# In ChEMBL document CHEMBL1157539, “Thousands of chemical starting points for antimalarial lead identification” (Nature, 2010):
# Test system: Plasmodium falciparum
# Experiment: GSK_TCMDC: Inhibition of Plasmodium falciparum 3D7 in whole erythrocytes, using parasite LDH activity as an index of growth.
# Format: functional, organism-based
# Conditions: Plasmodium falciparum, 3D7
row,Compound,XC50 [nM]
1,Nc1cc(/C=C/c2ccc([N+](=O)[O-])s2)nc2ccccc12,760
2,CCc1cc2c3c(N)nc(N)nc3ccc2n1CC,10.3
3,CCN(CC)CCN(Cc1ccc(-c2ccc(C(F)(F)F)cc2)cc1)C(=O)Cn1c(CCc2ccccc2F)nc(=O)c2ccccc21,934
4,Oc1ccc(Nc2ccnc3cc(Cl)ccc23)cc1,744
5,NCc1ccc(CNCc2ccc(-c3ccc(-c4nc5cc(F)ccc5[nH]4)cc3)cc2)cc1,402
6,COc1ccc2nccc([C@@H](O)CN3CCC(NCc4ccc5c(c4)NC(=O)CS5)CC3)c2n1,747
7,O=C(Nc1cccc(CN2CCCN(Cc3cccnc3)CC2)c1)c1cc2ccccc2s1,1470
8,Oc1ccc(C2CNCCc3c2cc(O)c(OCc2ccccc2)c3Cl)cc1 (centres undefined),716
9,O=C(Nc1ccc(CC(=O)N2CCc3cc(Cl)c(N4CCN(C/C=C/c5ccccc5)CC4)cc32)cc1)Nc1cccc([N+](=O)[O-])c1,761
10,O=C(O)C[C@H](NC(=O)CCCNC(=O)c1cccc(-c2ccc(Cl)c(Cl)c2)c1)C(=O)O,881
11,Fc1ccc2[nH]ccc(=NN=CC=Cc3ccccc3)c2c1,681
12,CN(Cc1cccc(C#N)c1)C1CCN(c2cc(NC(=O)c3ccc(F)cc3)ccn2)CC1,1070
13,Oc1cccc2c1CC(NCc1ccccc1)CC2 (centres undefined),887
14,COc1cccc(C(O)CNc2ccnc(Nc3ccc(Cl)cc3)n2)c1 (centres undefined),606
15,Cc1cc(Nc2cc(Cl)cc(Cl)c2)nc(N)n1,1140
16,COc1ccc(CN(C)CC(O)COc2ccc(NC(=O)c3cccc4c(=O)c5cccc(OC)c5[nH]c34)cc2)cc1OC (centres undefined),780
17,CC(=O)Nc1cccc(C(=O)Nc2cccc(-c3ccc(-c4nc5cc(F)ccc5[nH]4)cc3)c2)c1,764
18,O=C(/C=C/c1ccc(Cl)c(Cl)c1)NCCCCCN1CCC(NC(=O)Nc2ccc(F)cc2F)CC1,739
19,COc1ccc(CC(=O)NC(CCN2CCC3(CC2)CN(S(C)(=O)=O)c2ccccc23)c2ccc(Cl)c(Cl)c2)cc1OC (centres undefined),998
20,Fc1ccc2ncc(Cl)c(CCN3CCC(NCc4cc5c(cn4)OCCO5)CC3)c2c1,884
21,Cc1ccc(Oc2cnn(C)c(=O)c2Nc2cccc(C(=O)NCCc3ccccn3)c2)c(C)c1,494
22,CC1CN(c2cccc3c2nc(-c2cncc(C#N)c2)n3CCNCc2ccccc2)CC(C)O1 (centres undefined),1220
23,Cc1ccc2c(C3=CCN(CCCCC4(C)C(=O)Nc5c(F)cccc54)CC3)c(C)[nH]c2c1 (centres undefined),265
24,CCNc1cc(C(=O)N[C@@H](Cc2cccc(F)c2)[C@H](O)CNC(C)CCCC(C)C)cc(N2CCCCS2(=O)=O)c1 (some centres undefined),596
25,Nc1nccc2ccc(-c3ccsc3)cc12,332

row,Compound,XC50 [nM]
1,Cc1ccc(OCCCON2C(=N)N=C(N)NC2(C)C)cc1C,3.2
2,Oc1ccc(CCCNc2nc(NCc3cccc4ccccc34)nc(N3CCNCC3)n2)cc1,808
3,COc1cccc(OC2CCN(C(=O)c3cc(C(C)(C)C)nn3Cc3ccccc3)CC2)c1,254
4,COc1cccc(-c2cc(C(=O)NC3CCC(N4CCC(c5ccccc5C)CC4)CC3)[nH]n2)c1 (centres undefined),1120
5,O=S(=O)(c1ccc(OC(F)(F)F)cc1)C1CC2CCC(C1)N2S(=O)(=O)c1ccc(Cl)c(C(F)(F)F)c1 (centres undefined),560
6,COc1ccccc1CC(C)NCC(O)c1cccc(Cl)c1 (centres undefined),811
7,CS(=O)(=O)Nc1ccc(-c2ccc3ccnc(N)c3c2)cc1,614
8,Nc1nc(N)c2c(ccc3c2ccn3Cc2ccc3c(c2)OCO3)n1,3.2
9,O=C(/C=C/c1ccccc1Cl)NC1CCC(CN2C3CCC2CC(c2c[nH]c4ccccc24)C3)CC1 (centres undefined),706
10,c1cc(CN2CCCCC2)cc(-c2ccc(-c3nc4ccccc4[nH]3)cc2)c1,889
11,CC1(CCc2ccccc2)N=C(N)N=C(N)C1c1ccc(Cl)c(Cl)c1 (centres undefined),316
12,CN(C)c1ccc2c(c1)Sc1cc(N(C)C)ccc1N2C(=O)c1cccc(C(=O)O)c1,184
13,Cc1cc(NC(=O)c2cccs2)ccc1OC1CCN(Cc2ccc(F)cc2)CC1,481
14,Cc1cccc2nc(-c3ccc(-c4ccc(CNCC(C)C)cc4)cc3)[nH]c12,405
15,O=S(=O)(c1cc(Cl)ccc1Cl)N1CCCCC(c2ccc(C(F)(F)F)cc2)=N1,998
16,CN(C)CCN(C)Cc1cccc(-c2ccc3c(Nc4cc(O)c(Cl)cc4F)ccnc3c2)c1,237
17,COc1ccc(N2CCN(CCCC/C=C/c3ccc(NC(=O)c4cc(Cl)cc(Cl)c4)cc3)CC2)c(OC)c1,660
18,CCCc1cc(C(=O)N[C@@H](Cc2ccccc2)[C@H](O)CNC(C)(C)c2cccc(OC)c2)c(F)c(N2CCCC2=O)c1,95.7
19,CC=CC1CCNC(C(O)c2ccnc3ccc(OC)cc23)C1 (centres undefined),1090
20,O=C(Nc1cc(C(F)(F)F)cc(C(F)(F)F)c1)Nc1cc(C(F)(F)F)cc(C(F)(F)F)c1,727
21,CCCCCCCCN1CCN(CCCCCCNc2c3ccccc3nc3ccccc23)CC1,162
22,CCCCn1c(-c2ccco2)nc2c(c(=O)c3ccccc3n2C)c1=O,1240
23,Cc1ccc2[nH]c(NC#N)nc2c1,1150
24,Oc1ccc2[nH]c(-c3cccs3)nc2c1CN1CCC(N2CCCC2)CC1,642
25,Cc1c(CNCCCNc2cc(=O)c3ccccc3[nH]2)sc(C(F)F)c1Br,867

row,Compound,XC50 [nM]
1,COc1ccc2nc3cc(Cl)ccc3c(N)c2c1,165
2,CN1CCCC(CN2CCN(Cc3cccc(-c4ccc(-c5nc6ccccc6[nH]5)s4)c3)CC2)C1 (centres undefined),149
3,Cc1ccc(CNC(=O)[C@H](Cc2ccccc2)Nc2cc(C)nc(Nc3ccccc3)n2)cc1,853
4,Cc1c(OC(C)C)nc2ccccc2c1C(=O)N[C@H](c1cccc(F)c1)C1CC1,1090
5,O=C(/C=C/c1ccc(Cl)c(Cl)c1)NCCCCCN1CCC(NC(=S)Nc2ccc(Cl)cc2Cl)CC1,738
6,O=C(CCCCCNC(=O)c1ccc(O)c(-c2ccc(Cl)c(Cl)c2)c1)NCCN1CCCC1,980
7,CC(=O)Nc1ccc(CN2CCC(NC(=O)c3ccc(-c4cccc(C(F)(F)F)c4)s3)CC2)cc1,890
8,CN(c1ccc2c(c1)nc(NC(=O)C1(c3cc(F)ccc3F)CC1)n2C)c1ccnc(Nc2cccc(CS(C)(=O)=O)c2)n1,1100
9,Cc1cccc2nc(-c3ccc(-c4ccc(CNCCCN5CCCC5=O)cc4)s3)[nH]c12,749
10,O=C(c1ccc([N+](=O)[O-])o1)N1CCC(c2cn(Cc3cccc(F)c3)c3ccccc23)CC1,637
11,COc1ccc2nccc(N3CCC(CCNCc4ccc5c(n4)NC(=O)CO5)CC3)c2n1,998
12,CCCOc1ccccc1C(=O)Nc1nonc1-c1ccc(OCC)c(OCC)c1,711
13,CCc1ccc(-c2cnc(N)c3cc(-c4ccnc(N)n4)ccc23)cc1,1350
14,Cc1ccc(Nc2nccc(NCC(O)c3ccc(C(F)(F)F)cc3)n2)cc1 (centres undefined),491
15,CC(Nc1nc(Nc2ccc(F)cc2)nc(SCC(N)=O)n1)c1ccccc1 (centres undefined),496
16,O=C(Nc1ccccc1)N(Cc1ccccc1-c1cccc(CNC2CCCC2)c1)C1CCN(Cc2ccccc2)CC1,168
17,O=C(NC1CCN(c2ccnc3ccccc23)C1)c1cccc(C(F)(F)F)c1 (centres undefined),897
18,Cc1ccc(NC(=O)Nc2ccc(Cl)c(C(F)(F)F)c2)cc1-c1ccc(C(=O)Nc2ccncc2)cc1,264
19,Cc1nc(C)c(-c2ccc(Oc3ccc(Cl)c(Cl)c3)cc2)c(O)c1Br,304
20,c1ccc(CN2CCC(Nc3ccc(-c4c[nH]nc4-c4ccccn4)nc3)CC2)cc1,799
21,Cc1ccccc1NC(=S)NC1CCN(CCCCCNC(=O)/C=C/c2ccc(Cl)c(Cl)c2)CC1,795
22,C[C@H](Cc1ccc(OCCCCCCOc2ccc(C[C@@H](C)NC(=O)[C@H](O)c3cccc(Cl)c3)cc2)cc1)NC[C@H](O)c1cccc(Cl)c1,381
23,CN1C(C)(C)CC(NC(=O)c2ccc(-c3cc4cc(Cl)c(Cl)cc4[nH]3)o2)CC1(C)C,1120
24,Cc1cccc(-c2nc3[nH]c(=O)cc(NC(=O)C(C)C)n3n2)c1,421
25,Cc1cccc(-c2ccc(NC(=O)Nc3ccc4nccc(N5CCN(C)CC5)c4c3)cc2C)n1,212

row,Compound,XC50 [nM]
1,N/C(=N\c1cccc(Cc2ccccc2)n1)NCc1ccccc1,863
2,Cc1[nH]c2ccc(-c3ccccc3)cc2c(=O)c1Br,162
3,CN(C)CCC1CCN(CCS(=O)(=O)c2cccc(Nc3ccc(-c4cccc(F)c4)cn3)c2)CC1,1070
4,N#Cc1ccc(C2CCN(CC[C@H](N)Cc3ccc(Cl)s3)CC2)cc1,1260
5,C(=N\Nc1nccc2sc(-c3cccnc3)cc12)/c1cccnc1,423
6,Cc1noc(C)c1-c1cccc(CNCc2cccc(-c3ccc(-c4nc5cc(C(F)(F)F)ccc5[nH]4)s3)c2)c1,166
7,Fc1ccc(N(c2nc(-c3cc(F)cc(C(F)(F)F)c3)cs2)C2CCNCC2)cc1,956
8,CC(=O)C1(c2ccccc2)CCN(CCC2(c3ccc(Cl)c(Cl)c3)CN(C(=O)Nc3cc(F)cc(F)c3)CCO2)CC1 (centres undefined),1480
9,Cc1ncccc1C(=O)Nc1ccc(-c2cccc(-c3nc4cccc(C)c4[nH]3)c2)cc1,733
10,O=C(CSc1ccccn1)Nc1c(F)cccc1F,1210
11,COCCOc1ccc(Nc2nccc(-c3c(-c4cccc(NC(=O)c5c(F)cccc5F)c4)nn4ccccc34)n2)cc1F,950
12,CC(Cc1ccc(OCCN2CCN(c3cccc(C(F)(F)F)c3)CC2)cc1)NCC(O)c1cccc(C(F)(F)F)c1 (centres undefined),181
13,O=c1ccc(-c2nc3cc(Cl)c(Cl)cc3n2Cc2ccc(Cl)cc2Cl)c[nH]1,1110
14,CCc1nn2c(Nc3ccncc3)cc(C)nc2c1-c1ccccc1,203
15,Cc1ccc(O)cc1Nc1ccnc2ccc(-c3cccc(CN(C)C)c3)cc12,515
16,Cc1nc(Nc2cc(Cl)ccc2O)nc(Nc2cc(Cl)ccc2O)c1[N+](=O)[O-],29.4
17,CCc1sc(N2CCC(C)CC2)nc1C(=O)Nc1ccc(F)cc1C(F)(F)F,1090
18,O=C(Nc1ccccc1F)NC1CCN(c2ccnc(Nc3ccc(F)cc3)n2)CC1,754
19,Cn1c(Nc2cc(C(C)(C)C)on2)nc2cc(Nc3ccnc(Nc4ccc(CS(C)(=O)=O)cc4)n3)ccc21,977
20,O=C(Cn1cnc2c(nnn2Cc2ccccc2F)c1=O)Nc1ccc2c(c1)OCCO2,949
21,COc1cc(C(=O)Nc2cccc(-c3nc4ccccc4[nH]3)c2)ccc1OC(C)=O,762
22,COc1cccc(C(=O)Nc2nonc2-c2ccc(OC)c(OC)c2)c1,801
23,COc1ccc(C2CC(c3ccccc3O)=NN2C(=O)c2ccco2)cc1OC (centres undefined),947
24,c1ccc(-c2cc3cccc(-c4nc5cnccc5[nH]4)c3o2)cc1,115
